Results on 3 compounds are retold here after US20210113563A1, “4-(4-CYANO-2-THIOARYL)DIHYDROPYRIMIDINONES FOR TREATING CHRONIC WOUNDS” (pH Pharma Co., Ltd., priority 2015, published 2021).

The subject of test [1] is wounds of Tight Skin mice (TSK). The test can be described thus: Reepithelialization and visual healing of full thickness skin excision wounds in Tight Skin mice (TSK). The test is classed as in vivo. The conditions noted are these: TSK mouse; for Wound closure (reepithelialization) in % of initial epidermal gap: d 12, CK16 staining. An excerpt:
OBJECTIVE: To evaluate wound closure/reepithelialization promoting effects of the Neutrophil Elastase Inhibitor Example 3 in a fibrosis-related model of delayed wound healing (Tight Skin Mouse, TSK). METHODS: Animals: mice, male+female, strain: B6.Cg-FBN1<Tsk>−/− (wt) and +/−(het), age: 5 weeks upon delivery, breeder: Bayer. Food (ssniff R/M-H) and water was provided ad libitum. Experimental procedure: Mice were randomized at day 0. At day 0, 3 full thickness excision wounds were induced. For that, animals were anesthetized (Rompun/Ketavet/NaCl 0.9% [1+3+16]) in […]. The lower back was shaved, then moistened with tap water. Pilca depilation cream was applied and left for 3-5 minutes to act, then wiped off. To prevent the animals from cooling down during the procedure, they were placed on warming mats. Skin was excised using 6 mm diameter round scalpels. After wake up mice were distributed to individual cages. Treatment: Day 0 to 11 twice daily per os. Example 3 was dissolved in PEG400 as a vehicle. Administration was twice daily (bid). Skin samples were harvested into formalin (3.7% in PBS) at day 12 after scarifying with isoflurane/O2/N2O anesthesia followed by dislocation of the cervical spine. After soaking in formalin (24-72 h), the samples were transferred to paraffin and then cut. Staining of cytokeratin 16 was performed using rabbit polyclonal anti-Keratin 16 (CK16, KRT16, ABIN265495), 1 mg/ml anti-CK16 antibody by IHC-Peroxidase (in a 1:100 dilution) EnVision+ System-HRP (DAB), for Rabbit Primary Antibodies (Dako #K4011).
Effects were most prominent on d7 and d9. All dosages were similarly effective, i.e. a clear dose response ratio remained to be established. […] Based on the size of the induced wounds, 6000 μm was set as 100%. The epidermal gap, i.e. the distance between the epidermal edges was measured by microscopic histometry. The width of the gap was subtracted from the initial wound. The delta represented the reepithelialized part of the wound and was expressed as reepithelialization in % of the initial wound diameter, i.e. 100% equaled complete reepithelialization or full wound closure.

For test [2], the target named is T1, human neutrophil elastase (HNE) (Homo sapiens, UniProt P08246).
T1 sequence (P08246 30-267): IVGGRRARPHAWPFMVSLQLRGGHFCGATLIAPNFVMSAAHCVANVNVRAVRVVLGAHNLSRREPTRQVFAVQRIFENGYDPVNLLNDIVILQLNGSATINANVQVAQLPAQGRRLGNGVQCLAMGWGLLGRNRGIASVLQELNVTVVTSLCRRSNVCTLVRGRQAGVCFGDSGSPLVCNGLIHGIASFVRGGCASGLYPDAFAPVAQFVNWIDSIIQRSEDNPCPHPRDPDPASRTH
The conditions noted are these: read-out: Inhibition of human neutrophil elastase (HNE) IC50; cited from earlier work.

Another test relates to HaCaT cells. As to the kind of experiment: HaCaT modified scratch assay (Oris Cell Migration Assay) with human neutrophil elastase. The test is classed as cell-based. The following applies: 7.5 μg/mL hNE. On the procedure: The modified scratch-wound assay is a simple, reproducible assay commonly used to measure basic cell migration parameters such as speed, persistence, and polarity. Cells are grown to confluence and a thin “wound” is introduced by scratching with a pipette tip. In the modified version, a plastic plug is placed into the tissue well while the cells adhere and grow to confluence. When the plug is pulled, a circular “wound” emerges. Cells at the wound edge polarise and migrate into the wound space. […] At the given time points, the size of the free area is measured.
Method: Oris Cell Migration Assay (collagen I coated) with HaCaT cells. Establishing a dose response curve for test compounds with and without addition of 7.5 μg/mL human neutrophil elastase (hNE).
For harvesting the cells, the medium was first extracted from the cell culture flask, then washed with PBS and 10-20 ml aspirated again. 2.5 ml (75 cm^2 flask bottom area) or 5 ml (162 cm^2) TrypLE Express were added, as well as the same amount of PBS followed by incubating the cells for 10 minutes (37° C.). The cells were transferred into a tube, centrifuged (250×g, 10 min, RT=room temperature) and resuspended in medium.
The following cell concentration was used: 7×10^5 cells/ml=7×10^4 cells/well/100 μl.
In this time, the cells adhered and grew to confluence. The compounds were then added to achieve the below indicated concentrations. The plugs were then removed.
Once all components were pipetted to the cells, one photo per well was taken including the “wound” (0 h). A Zeiss AxioObserver (5× lens, bright field, 5.5 V light exposure 2.2 ms) and the AxioVision software was used. […] 16 h later pictures were taken again.
The relative healing was calculated, i.e. the percentage of closed wound area compared to baseline at 0 h.
Wound healing %=100−(‘wound surface after x hours’*100/‘wound surface after 0 hours’)
From the calculated relative wound healing a graphic in GrapPad prism was created, and EC50 values were determined.
For evaluation of pictures the software ImageJ was used. For this, the ZVI files were exported within the AxioVision software as jpg. This jpg files were then opened by ImageJ. Using the Tools panel (Mode: 4-connected/Tolerance=5-20) the to be measured surface area was marked.

Entries after “also recorded” stand apart in the source; their conditions may differ.

For the compound `CC1=C(C#N)[C@@H](c2ccc(C#N)cc2S(C)(=O)=O)N(S(C)(=O)=O)C(=O)N1c1cccc(C(F)(F)F)c1` [Example 3, (4 S)-4-[4-Cyano-2-(methylsulfonyl)phenyl]-6-methyl-3-(methylsulfonyl)-2-oxo-1-[3-(trifluoromethyl)phenyl]-1,2,3,4-tetrahydropyrimidine-5-carbonitrile], the “Wound closure (reepithelialization) in % of initial epidermal gap” value is 95.8% in test [1] (2.5 mg/kg BW twice daily p.o.), 93.9% in test [1] (5 mg/kg BW twice daily p.o.), 99.5% in test [1] (10 mg/kg BW twice daily p.o.) and 100% in test [1] (20 mg/kg BW twice daily p.o.). In addition, the “Visual wound healing, wound area reduction over time (in words)” value in test [1] (2.5-20 mg/kg bid p.o., FIG. 1) is listed as “significant visual wound healing improving effects; also recorded: induced accelerated wound healing”. Moreover, the “Reepithelialization vs. vehicle controls, histological (in words)” value in test [1] (d 12) is “reepithelialization was significantly further advanced”. In addition, the IC50 in test [2] was < 0.3 nM; with HaCaT cells (Homo sapiens, 16 h), 57.4 nM. Besides, in the test with HaCaT cells, the “Correction of the reepithelialization-impairing effect of NE (in words)” value is “almost entirely, potently and concentration-dependently be corrected; also recorded: potently and effectively able to block detrimental effects of NE”. This compound had a Bottom in the test with HaCaT cells (curve fit, 16 h) of 90.41. For the same compound, the Span in the test with HaCaT cells (curve fit, 16 h) is listed as −47.65. This compound yielded a Top with HaCaT cells (curve fit, 16 h) of 42.75.

With `CC1=C(C#N)[C@@H](c2ccc(C#N)cc2S(C)(=O)=O)N(S(=O)(=O)C2CC2)C(=O)N1c1cccc(C(F)(F)F)c1` [Example 4, (4 S)-4-[4-Cyano-2-(methylsulfonyl)phenyl]-6-methyl-3-(cyclopropylsulfonyl)-2-oxo-1-[3-(trifluoromethyl)phenyl]-1,2,3,4-tetrahydropyrimidine-5-carbonitrile], the IC50 in test [2] is < 0.3 nM.

Consider `CCS(=O)(=O)c1cc(C#N)ccc1[C@@H]1C(C#N)=C(C)N(c2cccc(C(F)(F)F)c2)C(=O)N1C` [Example 6, (4 S)-4-[4-Cyano-2-(ethylsulfonyl)phenyl]-3,6-dimethyl-2-oxo-1-[3-(trifluoromethyl)phenyl]-1,2,3,4-tetrahydropyrimidine-5-carbonitrile], for which the IC50 in test [2] is < 0.3 nM.

A word on the IC50: it is the concentration needed to halve the response being measured.
